In article PMC11249646, “Small-Molecule Disruptors of the Interaction between Calcium- and Integrin-Binding Protein 1 and Integrin αIIbβ3 as Novel Antiplatelet Agents” (ACS Pharmacology & Translational Science, 2024):

Target: T1, GST-CIB1 : F-scrambled peptide (Homo sapiens, UniProt Q99828)
T1 construct: made in house; host or cells: BL-21 plus RIL cells (E. coli)
T1 sequence (Q99828 1-191): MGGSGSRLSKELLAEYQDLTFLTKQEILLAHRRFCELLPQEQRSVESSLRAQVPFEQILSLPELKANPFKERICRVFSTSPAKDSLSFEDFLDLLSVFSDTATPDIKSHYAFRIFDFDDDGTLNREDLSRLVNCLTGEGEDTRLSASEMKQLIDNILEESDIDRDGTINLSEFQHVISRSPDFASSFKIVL
Experiment: FP scrambled-peptide counter screen, 1536-well format
Type: binding
Conditions: Table S3, counterscreen, qHTS curve class; a negative sign marks inhibitory curves

Curve Class (counterscreen)	Compound
-2.4	O=C(NC1=CC(=O)[C@H]2O[C@H]2C1=O)c1ccccc1O [NCGC00168093-01]
-1.2	C[C@@H]1CC[C@]2(C)C3(C)CC[C@@]2(OC3=O)[C@@]12C[C@H](c1ccoc1)OC2=O [NCGC00180662-03]
4	O=C(NNC(=O)c1nc2ccccc2[nH]1)OCc1ccccc1 [NCGC00181216-01]
4	Cc1ccccc1NC(=O)CN1C(=O)N/C(=C\c2cn(-c3cccc(C(=O)O)c3)cn2)C1=O [NCGC00182400-01]

Same assay, conditions: Table S3, counterscreen; negative = inhibition

Compound	Efficacy (%) (counterscreen)
Cc1cc(C(C#N)c2ccc(Cl)cc2)c(Cl)cc1NC(=O)c1cc(I)cc(I)c1O (stereo not shown) [NCGC00166312-02]	117
O=C(NNC(=O)c1nc2ccccc2[nH]1)OCc1ccccc1 [NCGC00181216-01]	-28

The remaining lines, values ahead:

Efficacy (%) (counterscreen)	Compound
-54	O=C(NC1=CC(=O)[C@H]2O[C@H]2C1=O)c1ccccc1O [NCGC00168093-01]
-44	C[C@@H]1CC[C@]2(C)C3(C)CC[C@@]2(OC3=O)[C@@]12C[C@H](c1ccoc1)OC2=O [NCGC00180662-03]
-14	Cc1ccccc1NC(=O)CN1C(=O)N/C(=C\c2cn(-c3cccc(C(=O)O)c3)cn2)C1=O [NCGC00182400-01]

Same assay, conditions: Table S3, counterscreen; read-out: IC50 [μM] (counterscreen)

IC50 [µM]	Compound
50.1	O=C(NC1=CC(=O)[C@H]2O[C@H]2C1=O)c1ccccc1O [NCGC00168093-01]
8.9	C[C@@H]1CC[C@]2(C)C3(C)CC[C@@]2(OC3=O)[C@@]12C[C@H](c1ccoc1)OC2=O [NCGC00180662-03]

Compound	IC50 [µM]
Cc1cc(C(C#N)c2ccc(Cl)cc2)c(Cl)cc1NC(=O)c1cc(I)cc(I)c1O (stereo not shown) [NCGC00166312-02]	31.6

Same assay, conditions: counterscreen

Compound	Efficacy (%) (counterscreen)
COC[C@H]1OC(=O)c2coc3c2[C@@]1(C)C1=C(C3=O)[C@@H]2CCC(=O)[C@@]2(C)C[C@H]1OC(C)=O [NCGC00163485-03]	-20

Same assay, conditions: counterscreen, YES/NO

Compound	Confirm? (counterscreen)
COC[C@H]1OC(=O)c2coc3c2[C@@]1(C)C1=C(C3=O)[C@@H]2CCC(=O)[C@@]2(C)C[C@H]1OC(C)=O [NCGC00163485-03]	YES

Same assay, conditions: counterscreen, qHTS curve class; negative sign = inhibitory curve

Compound	Curve Class (counterscreen)
COC[C@H]1OC(=O)c2coc3c2[C@@]1(C)C1=C(C3=O)[C@@H]2CCC(=O)[C@@]2(C)C[C@H]1OC(C)=O [NCGC00163485-03]	4

Target: T2, CIB1 and αIIb interaction (CIB1-GST : F-αIIb peptide) (Homo sapiens, UniProt Q99828)
T2 construct: made in house; host or cells: BL-21 plus RIL cells (E. coli)
T2 sequence (Q99828 1-191): T1 sequence (Q99828 1-191)
Experiment: FP assay, 1536-well qHTS format (primary and confirmatory screen)
Type: binding
Conditions: IC50 [μM], qHTS FP screen hits, Table S2

Compound	IC50 [µM]
Cc1cc(C(C#N)c2ccc(Cl)cc2)c(Cl)cc1NC(=O)c1cc(I)cc(I)c1O (stereo not shown) [NCGC00166312-02]	27

Same assay, conditions: Table S3, confirmatory screen, YES/NO call

Confirm? (confirmatory screen)	Compound
YES	O=C(NC1=CC(=O)[C@H]2O[C@H]2C1=O)c1ccccc1O [NCGC00168093-01]
YES	C[C@@H]1CC[C@]2(C)C3(C)CC[C@@]2(OC3=O)[C@@]12C[C@H](c1ccoc1)OC2=O [NCGC00180662-03]

Same assay, conditions: Table S3, confirmatory screen, qHTS curve class; a negative sign marks inhibitory curves

Compound	Curve Class (confirmatory screen)
Cc1cc(C(C#N)c2ccc(Cl)cc2)c(Cl)cc1NC(=O)c1cc(I)cc(I)c1O (stereo not shown) [NCGC00166312-02]	4
O=C(NNC(=O)c1nc2ccccc2[nH]1)OCc1ccccc1 [NCGC00181216-01]	4

Other lines, results leading:

Curve Class (confirmatory screen)	Compound
-2.4	O=C(NC1=CC(=O)[C@H]2O[C@H]2C1=O)c1ccccc1O [NCGC00168093-01]
-1.2	C[C@@H]1CC[C@]2(C)C3(C)CC[C@@]2(OC3=O)[C@@]12C[C@H](c1ccoc1)OC2=O [NCGC00180662-03]
4	Cc1ccccc1NC(=O)CN1C(=O)N/C(=C\c2cn(-c3cccc(C(=O)O)c3)cn2)C1=O [NCGC00182400-01]

Same assay, conditions: Table S3, confirmatory screen; negative = inhibition

Compound	Efficacy (%) (confirmatory screen)
Cc1cc(C(C#N)c2ccc(Cl)cc2)c(Cl)cc1NC(=O)c1cc(I)cc(I)c1O (stereo not shown) [NCGC00166312-02]	-32
O=C(NNC(=O)c1nc2ccccc2[nH]1)OCc1ccccc1 [NCGC00181216-01]	-25

Results, then the molecule that gave them:

Efficacy (%) (confirmatory screen)	Compound
-49	O=C(NC1=CC(=O)[C@H]2O[C@H]2C1=O)c1ccccc1O [NCGC00168093-01]
-44	C[C@@H]1CC[C@]2(C)C3(C)CC[C@@]2(OC3=O)[C@@]12C[C@H](c1ccoc1)OC2=O [NCGC00180662-03]
-21	Cc1ccccc1NC(=O)CN1C(=O)N/C(=C\c2cn(-c3cccc(C(=O)O)c3)cn2)C1=O [NCGC00182400-01]

Same assay, conditions: Table S3, confirmatory screen; read-out: IC50 [μM] (confirmatory screen)

IC50 [µM]	Compound
56.2	O=C(NC1=CC(=O)[C@H]2O[C@H]2C1=O)c1ccccc1O [NCGC00168093-01]
7.1	C[C@@H]1CC[C@]2(C)C3(C)CC[C@@]2(OC3=O)[C@@]12C[C@H](c1ccoc1)OC2=O [NCGC00180662-03]

Same assay, conditions: confirmatory screen; read-out: IC50 [μM] (confirmatory screen)

Compound	IC50 [µM]
COC[C@H]1OC(=O)c2coc3c2[C@@]1(C)C1=C(C3=O)[C@@H]2CCC(=O)[C@@]2(C)C[C@H]1OC(C)=O [NCGC00163485-03]	28.2

Same assay, conditions: qHTS FP screen hits, Table S2; negative = inhibition

Efficacy (%)	Compound
-33	C[C@@H]1CC[C@]2(C)C3(C)CC[C@@]2(OC3=O)[C@@]12C[C@H](c1ccoc1)OC2=O [NCGC00180662-03]
-24	Cc1ccccc1NC(=O)CN1C(=O)N/C(=C\c2cn(-c3cccc(C(=O)O)c3)cn2)C1=O [NCGC00182400-01]

Compound	Efficacy (%)
Cc1cc(C(C#N)c2ccc(Cl)cc2)c(Cl)cc1NC(=O)c1cc(I)cc(I)c1O (stereo not shown) [NCGC00166312-02]	-35

Same assay, conditions: qHTS FP screen hits, Table S2; one class per curve where COUNT > 1; negative sign = inhibitory curve

Curve Class	Compound
-1.2	C[C@@H]1CC[C@]2(C)C3(C)CC[C@@]2(OC3=O)[C@@]12C[C@H](c1ccoc1)OC2=O [NCGC00180662-03]

Same assay, conditions: qHTS FP screen hits, Table S2; read-out: IC50

IC50 [µM]	Compound
10	C[C@@H]1CC[C@]2(C)C3(C)CC[C@@]2(OC3=O)[C@@]12C[C@H](c1ccoc1)OC2=O [NCGC00180662-03]
11.2	Cc1ccccc1NC(=O)CN1C(=O)N/C(=C\c2cn(-c3cccc(C(=O)O)c3)cn2)C1=O [NCGC00182400-01]

Same assay, conditions: qHTS primary screen hits, Table S2; negative = inhibition

Efficacy (%)	Compound
-29	O=C(NC1=CC(=O)[C@H]2O[C@H]2C1=O)c1ccccc1O [NCGC00168093-01]
-24	O=C(NNC(=O)c1nc2ccccc2[nH]1)OCc1ccccc1 [NCGC00181216-01]

Same assay, conditions: qHTS primary screen hits, Table S2; negative sign = inhibitory curve; several classes where COUNT > 1

Curve Class	Compound
-2.4	O=C(NC1=CC(=O)[C@H]2O[C@H]2C1=O)c1ccccc1O [NCGC00168093-01]
-2.4	O=C(NNC(=O)c1nc2ccccc2[nH]1)OCc1ccccc1 [NCGC00181216-01]

Same assay, conditions: qHTS primary screen hits, Table S2; read-out: IC50

IC50 [µM]	Compound
31.6	O=C(NC1=CC(=O)[C@H]2O[C@H]2C1=O)c1ccccc1O [NCGC00168093-01]
22.4	O=C(NNC(=O)c1nc2ccccc2[nH]1)OCc1ccccc1 [NCGC00181216-01]
